In patent US9783490B2, “Antimicrobial compounds, their synthesis and applications thereof” (The Secretary of State for Health, priority 2012, dated 2017):
Where two headings read alike, the source gives them in different places.

Legend:
[1] = tested on: Pseudomonas aeruginosa (ATCC 4676); experiment: Minimum Inhibitory Concentration, micro-dilution broth; assay type: cell-based; conditions: for Minimum Inhibitory Concentration P. aeruginosa: Drug sensitive bacteria
Method: (§1) Microorganisms and Culture Conditions: Bacterial strains, S. aureus (MTCC 737) and E. coli (MTCC 443) are purchased from MTCC (Chandigarh, India). MRSA (ATCC 33591), Pseudomonas aeruginosa (ATCC 4676), […]-lactamase producing and drug-resistant Klebsiella pneumonia (ATCC700603), Enterococcus faecium (ATCC 19634) and vancomycin resistant Enterococcus faecium (ATCC 51559) are obtained from ATCC (Rockville, Md., USA).
(§2) E. coli is cultured in Luria Bertani broth (10 g of tryptone, 5 g of yeast extract, and 10 g of NaCl in 1000 mL of sterile distilled water (pH −7) while S. aureus, Pseudomonas aeruginosa (ATCC 4676) and MRSA are grown in Yeast-dextrose broth (1 g of beef extract, 2 g of yeast extract, 5 g of peptone and 5 g of NaCl in 1000 mL of sterile distilled water). For all Enterococcus faecium, Brain Heart Infusion broth (BHI) is used. For solid media 5% agar was used along with above mentioned composition. K. pneumonia was grown in nutrient media (3 g of beef extract and 5 g of peptone in 1000 mL of sterile distilled water). The bacterial samples were freeze dried and stored at −80° C. 5 μl of these stocks were added to 3 mL of the nutrient broth and the culture was grown for 6 h at 37° C. prior to the experiments.
(§3) Antibacterial activity is reported as Minimum Inhibitory Concentration (MIC), i.e. the lowest concentration of the antimicrobial agent that will inhibit the growth of a microorganism after overnight incubation. Water-soluble ACK, NCK and BCK series of compounds are assayed in a modified micro-dilution broth format. Stock solutions are made by serially diluting the compounds using autoclaved Millipore water. Bacteria, to be tested are grown for about 6 hrs in the suitable media containing ˜10^9 cfu/mL (determined through dilution plate technique by spread plate method), which is then diluted to 10^5 cfu/mL using nutrient media. 50 μL of serially diluted compound is added to a 96 well plate containing 150 μL bacterial solutions. Two controls are made; one containing 150 μL of media and 50 μL of compound and the other containing 200 μL of bacterial solution. […] MIC value is determined by taking the average of triplicate O.D. values for each concentration and plotting it against concentration using Origin Pro 8.0 software. The data is then subjected to sigmoidal fitting. From the curve, MIC value is determined, as the point in the curve where the O.D. is similar to that of control having no bacteria. The MIC values and errors of independent experiments are reported as average and standard deviation of triplicates.

[2] = tested on: drug-resistant Klebsiella pneumonia (ATCC700603); experiment: as above; assay type: cell-based; conditions: for Minimum Inhibitory Concentration K. pneumonia: Drug resistant bacteria
Method: as §1, §2, §3

[3] = tested on: Enterococcus faecium (ATCC 19634); experiment: as above; assay type: cell-based; conditions: for Minimum Inhibitory Concentration E. faecium: Drug sensitive bacteria
Method: as §1, §2, §3

[4] = tested on: vancomycin resistant Enterococcus faecium (ATCC 51559); experiment: as above; assay type: cell-based; conditions: for Minimum Inhibitory Concentration VRE: Drug resistant bacteria
Method: as §1, §2, §3

E. coli (MTCC 443) = experiment: as above; assay type: cell-based, Escherichia coli; conditions: for Minimum Inhibitory Concentration E. coli: Drug sensitive bacteria
Method: as §1, §2, §3

human RBCs = experiment: Haemolytic activity (HC50); assay type: cell-based
Method: Erythrocytes are isolated from freshly drawn, heparinized human blood and re-suspended to 5 vol % in PBS (pH 7.4). In a 96-well microtiter plate, 150 μl of erythrocyte suspension is added to 50 μl of serially diluted compound. Two controls are made, one without compound and other with 50 μl of 1 vol % solution of Triton X-100. The plate is incubated for about 1 hr at a temperature of about 37° C. The plate is then centrifuged at 3,500 rpm for about 5 min, 100 μl of the supernatant from each well is transferred to a fresh microtiter plate, and absorbance at 540 nm is measured. Percentage of hemolysis is determined as (A−A0)/(Atotal−A0)×100, where A is the absorbance of the test well, A0 the absorbance of the negative controls (without compound), and A total the absorbance of 100% hemolysis wells (with Triton X-100), when absorbance is read at 540 nm.
Toxicity studies of the compounds are carried out on freshly drawn human RBCs. Toxicity of the antimicrobial compounds of the present disclosure is defined by their HC50 values illustrated in Table 3, i.e. the concentration of compound at which 50% of the blood cells are lysed. Haemolytic studies conducted herein illustrates that the antimicrobial compounds provided by the instant disclosure are selective towards drug sensitive bacteria and drug resistant bacteria over human RBCs, thus establishing the non-toxicity of the present compounds.

S. aureus (MTCC 737) = experiment: Minimum Inhibitory Concentration, micro-dilution broth; assay type: cell-based, Staphylococcus aureus; conditions: for Minimum Inhibitory Concentration S. aureus: Drug sensitive bacteria
Method: as §1, §2, §3

MRSA (ATCC 33591) = experiment: as above; assay type: cell-based, Methicillin resistant S. aureus; conditions: for Minimum Inhibitory Concentration MRSA: Drug resistant bacteria
Method: as §1, §2, §3

[5] = concentration at which 50% of the blood cells are lysed, human RBCs

Compound	MIC value against P. aeruginosa [1]	Minimum Inhibitory Concentration P. aeruginosa [1]	MIC value against K. pneumonia [2]	Minimum Inhibitory Concentration K. pneumonia [2]	MIC value against E. faecium [3]	Minimum Inhibitory Concentration E. faecium [3]	MIC value against vancomycin-resistant E. faecium [4]	Minimum Inhibitory Concentration VRE [4]	MIC value against E. coli (E. coli (MTCC 443))	Minimum Inhibitory Concentration E. coli (E. coli (MTCC 443))	HC50 (human RBCs; [5])	MIC value against S. aureus (S. aureus (MTCC 737))	Minimum Inhibitory Concentration S. aureus (S. aureus (MTCC 737))	MIC value against methicillin-resistant S. aureus (MRSA (ATCC 33591))	Minimum Inhibitory Concentration MRSA (MRSA (ATCC 33591))	HC50 (human RBCs)
CCCCCCCCN(Cc1c2ccccc2c(Cl)c2ccccc12)C(=O)[C@@H](N)CCCCN.O=C(O)C(F)(F)F [ACK-8, Lys-N-octyl-10-Aminomethyl-9-chloroanthracene trifluoroacetate]	~3.8 µg/mL	3.8 µg/mL	~4.3 µg/mL	4.3 µg/mL	~2.5 µg/mL	2.5 µg/mL	~3 µg/mL	3 µg/mL	~2.9 µg/mL	2.9 µg/mL	64 µg/mL	~2.2 µg/mL	2.2 µg/mL	~2.3 µg/mL	2.3 µg/mL	
CCCCCCCCCCCCN(Cc1cccc2ccccc12)C(=O)[C@@H](N)CCCCN.O=C(O)C(F)(F)F [NCK-12, Lys-N-dodecyl-1-Aminomethylnaphthalene trifluoroacetate]	~3.2 µg/mL	3.2 µg/mL	~4 µg/mL	4 µg/mL	~1.6 µg/mL	1.6 µg/mL	~3.4 µg/mL	3.4 µg/mL	~3.1 µg/mL	3.1 µg/mL	56 µg/mL	~3 µg/mL	3 µg/mL	~2.7 µg/mL	2.7 µg/mL	
CCCCCCCCCCN(Cc1c2ccccc2c(Cl)c2ccccc12)C(=O)[C@@H](N)CCCCN.O=C(O)C(F)(F)F [ACK-10, Lys-N-decyl-10-Aminomethyl-9-chloroanthracene trifluoroacetate]		11 µg/mL	~7.6 µg/mL	7.6 µg/mL	~4.9 µg/mL	4.9 µg/mL	~5.6 µg/mL	5.6 µg/mL		26 µg/mL	71 µg/mL	~7.1 µg/mL	7.1 µg/mL	~4.6 µg/mL	4.6 µg/mL	
CCN(Cc1c2ccccc2c(Cl)c2ccccc12)C(=O)C(N)CCCCN.O=C(O)C(F)(F)F (centres unmarked) [ACK-2, Lys-N-ethyl-10-Aminomethyl-9-chloroanthracene trifluoroacetate]	about 4 μg/ml	4 µg/mL		31 µg/mL		13.6 µg/mL		7.2 µg/mL		25 µg/mL	118 µg/mL		11 µg/mL		21 µg/mL	
CCCCN(Cc1cccc2ccccc12)C(=O)C(N)CCCCN.O=C(O)C(F)(F)F (centres unmarked) [NCK-4, Lys-N-butyl-1-Aminomethylnaphthalene trifluoroacetate]		>100 µg/mL		>100 µg/mL		>100 µg/mL		>100 µg/mL		>100 µg/mL	>1000 µg/mL		>100 µg/mL		>100 µg/mL	
CCCCCCCCN(Cc1ccc(-c2ccccc2)cc1)C(=O)C(N)CCCCN (centres unmarked) [Compound 6c, Lys-N-octyl-1-Aminomethylbiphenyl]													1.3 µg/mL			
CCCCCCN(Cc1ccc(-c2ccccc2)cc1)C(=O)[C@@H](N)CCCCN [Compound 6b, Lys-N-hexyl-1-Aminomethylbiphenyl]													7.5 µg/mL			
CCCCCCCCCCN(Cc1ccccc1)C(=O)[C@@H](N)CCCCN.O=C(O)C(F)(F)F [BCK-10, Lys-N-decyl-1-Aminomethylbenzene trifluoroacetates]	about 4 μg/ml	4 µg/mL	about 31 μg/ml	31 µg/mL	about 6.5 μg/ml	6.5 µg/mL	about 5.8 μg/ml	5.8 µg/mL	about 6.5 μg/ml	6.5 µg/mL	95 µg/mL	about 5.7 μg/ml	5.7 µg/mL	about 15.7 μg/ml	15.7 µg/mL	
CCCCCCN(Cc1ccccc1)C(=O)[C@@H](N)CCCCN.O=C(O)C(F)(F)F [BCK-6, Lys-N-hexyl-1-Aminomethylbenzene trifluoroacetate]		>100 µg/mL		>100 µg/mL		>100 µg/mL				>100 µg/mL			>100 µg/mL		>100 µg/mL	>1000 µg/mL
CCCCN(Cc1ccc(-c2ccccc2)cc1)C(=O)[C@@H](N)CCCCN [Compound 6a, Lys-N-Butyl-1-Aminomethylbiphenyl]													60 µg/mL			
CCCCN(Cc1ccccc1)C(=O)[C@@H](N)CCCCN.O=C(O)C(F)(F)F [BCK-4, Lys-N-butyl-1-Aminomethylbenzene trifluoroacetate]		>100 µg/mL		>100 µg/mL		>100 µg/mL				>100 µg/mL			>100 µg/mL		>100 µg/mL	>1000 µg/mL
CCCCCCCCN(Cc1c2ccccc2cc2ccccc12)C(=O)[C@@H](N)CCCCN.O=C(O)C(F)(F)F [Compound 8c, Lys-N-octyl-9-Aminomethylanthracene trifluoroacetate]													2.2 µg/mL		3.6 µg/mL	42 µg/mL
